Test results reported in ChEMBL document CHEMBL1212719, “In vivo effects of a GPR30 antagonist” (Nat Chem Biol, 2009).
Calls of active or inactive are those of the source. The rule behind the calls is not given here.

Experiments:
[1] = tested on: Mus musculus; test: Effect on uterine weight in ovariectomized C57B16 mouse at 0.1 to 2.4 nM, sc; format: functional, organism-based; settings: Uterus
[2] = biological target: T1, Estrogen receptor beta (Homo sapiens, UniProt Q92731); test: Binding affinity to ERbeta receptor in COS7 cells by competitive binding assay; format: cell-based, COS-7
T1 sequence (Q92731 whole entry): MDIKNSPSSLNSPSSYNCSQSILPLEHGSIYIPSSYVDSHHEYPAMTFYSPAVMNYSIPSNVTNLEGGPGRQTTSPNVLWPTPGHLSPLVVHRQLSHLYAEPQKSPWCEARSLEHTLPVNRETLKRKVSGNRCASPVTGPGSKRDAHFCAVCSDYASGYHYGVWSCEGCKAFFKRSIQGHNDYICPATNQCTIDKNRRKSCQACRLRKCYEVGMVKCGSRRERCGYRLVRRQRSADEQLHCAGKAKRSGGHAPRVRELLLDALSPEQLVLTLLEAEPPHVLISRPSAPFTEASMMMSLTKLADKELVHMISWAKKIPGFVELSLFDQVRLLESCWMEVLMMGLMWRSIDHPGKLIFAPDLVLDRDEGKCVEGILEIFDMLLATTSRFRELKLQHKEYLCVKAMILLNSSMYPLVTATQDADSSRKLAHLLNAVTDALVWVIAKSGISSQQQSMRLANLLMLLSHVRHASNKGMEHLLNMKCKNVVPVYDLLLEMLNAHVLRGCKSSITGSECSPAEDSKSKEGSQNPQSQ

[3] = biological target: T2, Estrogen receptor (Homo sapiens) (UniProt P03372); test: Antagonist activity in ERalpha-transfected COS7 cells assessed as inhibition of E2-mediated PI(3)K activation; format: functional, cell-based; settings: COS-7
T2 sequence (whole entry): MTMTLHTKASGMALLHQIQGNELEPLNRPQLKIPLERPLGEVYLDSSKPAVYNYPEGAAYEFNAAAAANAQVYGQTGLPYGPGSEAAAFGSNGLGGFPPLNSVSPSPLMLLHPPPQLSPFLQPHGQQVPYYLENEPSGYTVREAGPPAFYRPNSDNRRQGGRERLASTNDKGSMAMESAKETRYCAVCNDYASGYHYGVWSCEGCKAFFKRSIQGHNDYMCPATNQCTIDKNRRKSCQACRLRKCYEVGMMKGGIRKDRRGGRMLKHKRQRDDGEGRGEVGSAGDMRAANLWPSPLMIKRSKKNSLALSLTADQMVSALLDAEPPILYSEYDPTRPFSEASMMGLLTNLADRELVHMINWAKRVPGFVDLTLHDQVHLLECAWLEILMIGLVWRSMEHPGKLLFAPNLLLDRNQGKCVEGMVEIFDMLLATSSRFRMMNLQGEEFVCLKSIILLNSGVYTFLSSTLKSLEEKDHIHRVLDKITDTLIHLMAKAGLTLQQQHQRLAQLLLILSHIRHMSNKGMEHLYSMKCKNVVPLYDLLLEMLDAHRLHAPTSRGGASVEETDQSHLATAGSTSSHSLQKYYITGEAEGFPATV

[4] = tested on: Mus musculus; test: Inhibition of G1-induced GPR30-mediated epithelial uterine cell proliferation in sc dosed ovariectomized C57B16 mouse; format: functional, organism-based; settings: Uterine epithelium
[5] = biological target: T1, Estrogen receptor beta; test: Antagonist activity in ERbeta-transfected COS7 cells assessed as inhibition of E2-mediated PI(3)K activation; format: functional, cell-based; settings: COS-7
[6] = tested on: Mus musculus; test: Inhibition of GPR30-mediated epithelial uterine cell proliferation in ovariectomized C57B16 mouse at 2.4 to 27 nM, sc relative to control; format: functional, organism-based; settings: Uterine epithelium
[7] = tested on: Mus musculus; test: Inhibition of estrogen-induced GPR30-mediated epithelial uterine cell proliferation in sc dosed ovariectomized C57B16 mouse; format: functional, Uterine epithelium
[8] = tested on: Mus musculus; test: Effect on uterine weight in ovariectomized C57B16 mouse at 2.4 to 27 nM, sc; format: functional, organism-based; settings: Uterus

With `CC(=O)c1ccc2c(c1)[C@@H]1C=CC[C@@H]1[C@H](c1cc3c(cc1Br)OCO3)N2` the Activity [1] was “inactive”.

With `Brc1cc2c(cc1[C@@H]1Nc3ccccc3[C@@H]3C=CC[C@@H]31)OCO2` the Ki [2] was over 10 µM, the Activity [3] was “inactive” and the inhibition [4] was “Active; Dose-dependent effect”. For the same compound, the Activity [5] was “inactive”, the Activity [6] was “inactive” and the “inhibition (INH)” value [7] was 50%. For the same compound, the Activity [8] was “inactive”.
